# In patent publication US9193954B2, “Methods and compositions for mesenchymal stem cell proliferation” (priority 2011, dated 2015):
# How the values were obtained:
# [1] = tested on: stem markers Sox2 and Nanog; experiment: RT-PCR of stem markers Sox2 and Nanog at end of 33 day culture, normalized to GAPDH (Example 1); assay type: cell-based, human; conditions: end of 33 day time course
# Description: FIG. 2 RNA was harvested from BIO treated hMSCs at day […] and analyzed for expression of stem markers Sox2 and Nanog. Expression was normalized to housekeeping gene GAPDH. Error bars shown are standard error (n=3).
# At the end of the 33 day experimental time course RNA was isolated (Omega E.N.Z.A total RNA kit) from the hMSC specimens (n=3) and reverse transcription (Bio-Rad iSCRIPT cDNA synthesis kit) was performed to yield cDNA. Forward and reverse primers (Table 1.) for the stem markers Sox2 and Nanog as well as the housekeeping gene, GAPDH (Glyceraldehyde 3-phosphate dehydrogenase) were then used to quantify gene expression. Expressions of genes of interest (Sox2 and Nanog) were normalized to control (GAPDH). We observed a dose dependent increase in both Sox2 and Nanog gene expression. Sox2 expression increased ˜30% and ˜50% with 2 μM and 5 μM BIO treatment, while Nanog expression increased >100% with 5 μM BIO treatment (FIG. 2).
# active nuclear β-catenin = experiment: TOPFlash/FOPFlash reporter assay for active nuclear β-catenin in C3H10T1/2; assay type: cell-based, mouse; conditions: for increase in normalized TOPFlash signal compared to untreated controls: after 24 hr treatment, C3H10T1/2
# Source text: FIG. 3 Schematic representation of 3 hr C3H10T1/2 transfection with TOP/FOPFlash DNA plasmid followed by 24 hr exposure to BIO-containing media and subsequent analysis for active nuclear β-catenin over 5 days (A). Active nuclear β-catenin concentrations (TOPFlash) show a BIO-mediated dose-dependent increase immediately after BIO treatment as compared to control plasmid (FOPFlash) (B). Increased active nuclearβ-catenin concentrations persists for 3 days after BIO-treatment before returning to basal levels (C).
# The β-catenin TOPFlash reporter plasmid and the FOPFlash mutant control (Addgene Plasmid #12456, and Addgene Plasmid #12457 were obtained in the form of DH5alpha bacterial stabs. Bacteria were streaked onto ampicillin-containing agar plates and grown overnight at 37° C. A single colony was selected, grown in 50 ml Luria-Bertani (LB) broth with 100 μg/ml ampicillin (Gibco) to select for ampicillin resistant colonies, and cultured at 37° C. under constant agitation for 24 hrs. Bacteria were centrifuged to form a pellet and plasmid DNA was purified using a Plasmid Midi Kit (Qiagen). Plasmid DNA was digested using EcoRI and PvuI restriction endonucleases (New England Biolabs) and fragments were separated on a 0.8% agarose gel. Molecular weights were verified using a standard DNA ladder (HyperLadder I, BioLine).
# C3H10T1/2 mouse embryonic fibroblasts were seeded in multiple 48-well plates and treated with BIO containing growth media for 24 hrs to analyze the effects of β-catenin activity over time. […]
# Luciferase activity was measured prior to BIO treatment (day 0), as well as on days 1, 2, 3, 4, and 5 after the 24 hr BIO treatment period. […] To each 96-well 25 μl of Luciferase Assay Reagent (Promega, Madison, Wis.) was added and total luminescence was measure immediately using a BioTek Synergy Mx plate-reader. Total luminescence was normalized to cellular DNA concentration using a Quant-iT PicoGreen dsDNA Assay Kit (Invitrogen) to account for well-to-well variability in cell density.
# hMSCs = experiment: Two-dimensional hMSC proliferation by manual cell counts (trypan blue, hemocytometer); assay type: cell-based, human; conditions: for increase in cell population compared to untreated controls: day 41, 24 hr treatment
# Description: FIG. 4 Schematic representation of 41 day hMSC monolayer culture after 24 hr exposure to BIO-containing media (A). Cells were trypsinized and manually counted on days 0, 1, 3, 6, 19, 27, 34, 37, and 41 and shown to undergo a dose-dependent, BIO-mediated increase in proliferation (B).
# hMSCs or C3H10T1/2s were seeded at a density of 5,000 cell/cm^2 in 24-well tissue culture plates (Greiner Bio-One, Monroe, N.C.) and allowed to become adherent over a period of 24 hrs prior to treatment. BIO was solubilized in dimethyl sulfoxide (DMSO) to prepare 200 and 500 μM stock solutions. 10 μL of BIO in DMSO was added to 1 mL of culture media so that the final concentrations of 0, 2, and 5 μM were achieved. The cells were cultured with BIO-containing media for 24 hrs after which media was replaced by media without BIO, as illustrated in FIGS. 4a and 7a (two-dimensional treatment and three-dimensional treatment respectively).
# During culture, hMSC viability was periodically assessed using an alamarBlue metabolic assay (AbD Serotec, UK). Culture media was replaced with a 10% alamarBlue-media solution and allowed to incubate at 37° C. for 2 hr. After incubation, alamarBlue solution was transferred to black 96-well plates and media was refreshed. Fluorescence intensity was measured using a Tecan Infinite 200 PRO plate-reader (excitation/emission: 570/600 nm). To assess hMSC proliferation, cells were trypsinized and counted using trypan blue exclusion and a hemocytometer. Average cell counts were normalized to data collected on day 0 to illustrate the effect of BIO on hMSC proliferation over time.
# PEG-encapsulated hMSCs = experiment: LIVE/DEAD confocal imaging of PEG-encapsulated BIO-treated hMSC cultures; assay type: cell-based, human; conditions: no detectable dead cells
# Source text: FIG. 7 Schematic representation of 18 day PEG-encapsulated hMSC culture after 24 hr exposure to BIO-containing media (A). Cell DNA concentration was quantified on days 0, 1, 5, 12, and 18 and shown to undergo a dose-dependent, BIO-mediated increase in proliferation (B), as previously shown in two-dimensional cultures. Representative LIVE/DEAD confocal images of PEG-encapsulated BIO-treated hMSC cultures (C).
# Encapsulated hMSC viability, BIO treatment, and assessment of gene expression was performed as described in Section 2.3 with exception of cell lysate collection. For assessment of gene expression hMSC-PEG constructs were homogenized in lysis buffer and centrifuged to pellet polymerized PEG. The supernatant was then collected for analysis.
smiles,measurement,setting,value
"O=C1Nc2cc(Br)ccc2/C1=C1/Nc2ccccc2/C1=N\O [BIO, 6-bromoindirubin-3′-oxime]",Sox2 expression increase,[1]; 2 μM BIO,~30%
same,Nanog expression increase,[1]; 5 μM BIO,> 100%
same,Sox2 expression increase,[1]; 5 μM BIO,~50%
same,increase in normalized TOPFlash signal compared to untreated controls,active nuclear β-catenin; 2 μM BIO,71 fold
same,increase in normalized TOPFlash signal compared to untreated controls,active nuclear β-catenin; 5 μM BIO,106 fold
same,"persistence of elevated TOPFlash signaling after BIO was removed, before returning to basal levels","active nuclear β-catenin; C3H10T1/2, after 24 hr BIO treatment",three
same,2D proliferation relative to untreated control,hMSCs; 2 uM BIO,155%
same,increase in cell population compared to untreated controls,hMSCs; 2 μM BIO,4.5 fold
same,2D proliferation relative to untreated control,hMSCs; 5 uM BIO,172%
same,increase in cell population compared to untreated controls,hMSCs; 5 μM BIO,5.5 fold
same,hMSC population increase,"hMSCs; BIO-treated hMSCs, concentration and day not stated",~4 fold
same,live cells (LIVE/DEAD imaging),PEG-encapsulated hMSCs,~100%
